Results: patent US12060349B2, “Glucosylceramide synthase inhibitors” (Genzyme Corporation, priority 2012, dated 2024)
Read-outs that look alike come from different tables or passages of the source.

Tests used:
[1] = target: T1, glucosylceramide synthase (Homo sapiens, UniProt Q16739); assay: microsomal assay measuring conversion of ceramide to glucosylceramide by HPLC (GCS IC50); format: biochemical; settings: concentration causing 50% inhibition of glucosylceramide synthase activity
T1 construct: Microsomes were isolated from A375 human melanoma cells; endogenous in cells; host or cells: A375 human melanoma cells (microsomal fraction, 100,000 g pellet)
T1 sequence (Q16739 1-394): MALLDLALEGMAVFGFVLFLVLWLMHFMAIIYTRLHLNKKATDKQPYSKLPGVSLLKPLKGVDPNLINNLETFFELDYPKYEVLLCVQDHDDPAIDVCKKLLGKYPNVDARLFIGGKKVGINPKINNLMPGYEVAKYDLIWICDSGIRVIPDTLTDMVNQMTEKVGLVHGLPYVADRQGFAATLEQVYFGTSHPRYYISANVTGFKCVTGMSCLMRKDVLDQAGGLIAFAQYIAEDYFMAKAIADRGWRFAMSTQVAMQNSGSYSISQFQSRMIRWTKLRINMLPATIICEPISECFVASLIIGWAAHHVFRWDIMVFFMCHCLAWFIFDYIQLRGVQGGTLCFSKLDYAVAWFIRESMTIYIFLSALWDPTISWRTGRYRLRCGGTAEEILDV
Method: Inhibition of glucosylceramide synthase activity for certain compounds of the invention were measured with 1) a microsomal assay that directly measures the conversion of ceramide to glucosylceramide by HPLC and 2) second, cell based, phenotypic assay that monitors cell surface expression of the downstream lipid GM3 by antibody mediated immunofluorescence. The cell based assay was performed in two different cell types, B16 and C32. Cell viability was also assessed in the second, cell-based assay.
The “Compound Number” in the table corresponds to the compound disclosed in the Example of the same number. The results of the microsomal assay are expressed as “GCS IC50”, which represents the concentration of the compound causing 50% inhibition of glucosylceramide synthase activity. The results of the cell based assays (performed in two different cell systems, i.e. B16 mouse melanoma or C32 human melanoma cells) are expressed as “GM3 B16 IC50” or “GM3 C32 IC50” for the B16 assay and the C32 assay, respectively. These values represent the concentration of the compound causing 50% inhibition of GM3 expression on the cell surface. The results of the viability assays are expressed as “Viability, B16 IC50” or “Viability, C32 IC50”, respectively. These values represent the concentration of the compound causing 50% cell death. Values greater than 10 represent a lack of cell death.

[2] = test system: GM3 expression on the cell surface, C32 human melanoma cells; assay: cell based phenotypic assay, cell surface GM3 by antibody mediated immunofluorescence, C32 (GM3 C32 IC50); settings: 50% inhibition of GM3 expression on the cell surface
Method: (§1) The cell based assay was performed in two different cell types, B16 and C32. Cell viability was also assessed in the second, cell-based assay.
(§2) The “Compound Number” in the table corresponds to the compound disclosed in the Example of the same number. […] The results of the cell based assays (performed in two different cell systems, i.e. B16 mouse melanoma or C32 human melanoma cells) are expressed as “GM3 B16 IC50” or “GM3 C32 IC50” for the B16 assay and the C32 assay, respectively. […] The results of the viability assays are expressed as “Viability, B16 IC50” or “Viability, C32 IC50”, respectively. These values represent the concentration of the compound causing 50% cell death. Values greater than 10 represent a lack of cell death.

C32 human melanoma cells = assay: cell viability in the C32 cell-based assay (Viability, C32 IC50)
Method: as §1, §2

B16 mouse melanoma cells = assay: cell viability in the B16 cell-based assay (Viability, B16 IC50)
Method: as §1, §2

[3] = test system: GM3 expression on the cell surface, B16 mouse melanoma cells; assay: cell based phenotypic assay, cell surface GM3 by antibody mediated immunofluorescence, B16 (GM3 B16 IC50); settings: 50% inhibition of GM3 expression on the cell surface
Method: as §1, §2

[4] = Homo sapiens, C32 human melanoma cells, read-out: GM3 C32 IC50
[5] = Homo sapiens, C32, C32 cells; concentration causing 50% cell death; values greater than 10 represent a lack of cell death; read-out: Viability, C32 IC50
[6] = Mus musculus, B16, B16 cells; concentration causing 50% cell death; values greater than 10 represent a lack of cell death; read-out: Viability, B16 IC50
[7] = Mus musculus, B16 mouse melanoma cells, read-out: GM3 B16 IC50
[8] = Homo sapiens, read-out: GM3 C32 IC50, C32 human melanoma cells
[9] = read-out: Viability, C32 IC50; C32 cells; concentration causing 50% cell death; values greater than 10 represent a lack of cell death
[10] = read-out: Viability, B16 IC50; B16 cells; concentration causing 50% cell death; values greater than 10 represent a lack of cell death
[11] = Mus musculus, read-out: GM3 B16 IC50, B16 mouse melanoma cells

| IC50 [1] | IC50 [2, 4] | IC50 [3, 7] | IC50 ([2]; C32 human melanoma cells, read-out: GM3 C32 IC50) | IC50 ([3]; B16 mouse melanoma cells, read-out: GM3 B16 IC50) | SMILES | IC50 (C32 human melanoma cells; [5]) | IC50 (B16 mouse melanoma cells; [6]) | IC50 [2, 8] | IC50 (C32 human melanoma cells; [9]) | IC50 (B16 mouse melanoma cells; [10]) | IC50 [3, 11] | IC50 (C32 human melanoma cells; C32 cells; concentration causing 50% cell death; values greater than 10 represent a lack of cell death; read-out: Viability, C32 IC50) | IC50 (B16 mouse melanoma cells; B16 cells; concentration causing 50% cell death; values greater than 10 represent a lack of cell death; read-out: Viability, B16 IC50) |
| --- | --- | --- | --- | --- | --- | --- | --- | --- | --- | --- | --- | --- | --- |
| 17.4 nM | 8.59 nM | 390 nM |  |  | COCc1ccc(-c2nc(N3CCN(C(=O)NC4(C)CCN5CCC4CC5)CC3C(C)C)ncc2F)cc1 (stereo not shown) [Example 148, 4-(5-Fluoro-4-(4-(methoxymethyl)phenyl)pyrimidin-2-yl)-3-isopropyl-N-(4-methyl-1-azabicyclo[3.2.2]nonan-4-yl)piperazine-1-carboxamide] | 1000 nM | 3460 nM |  |  |  |  |  |  |
| 3.96 nM | 0.0905 nM | 15.6 nM |  |  | COCc1ccc(-c2ccnc(N3CCC(C(=O)NC4(C)CCN5CCC4CC5)CC3)n2)cc1 (stereo not shown) [Example 70, 1-(4-(4-(Methoxymethyl)phenyl)pyrimidin-2-yl)-N-(4-methyl-1-azabicyclo[3.2.2]nonan-4-yl)piperidine-4-carboxamide] | 1000 nM | 1000 nM |  |  |  |  |  |  |
| 2540 nM | 91 nM | 369 nM |  |  | COCCOc1ccc(-c2nc(C(C)(C)NC(=O)N3CCN4CCC3CC4)cs2)cc1 [Example 345, N-(2-(2-(4-(2-Methoxyethoxy)phenyl)thiazol-4-yl)propan-2-yl)-1,4-diazabicyclo[3.2.2]nonane-4-carboxamide] | 3160 nM | ≥ 10000 nM |  |  |  |  |  |  |
| 1590 nM | 86.6 nM | 1440 nM |  |  | CC(C)c1cccc(N2CCN(C(=O)NC3(C)CCN4CCC3CC4)CC2)c1 (stereo not shown) [Example 28, 4-(3-Isopropylphenyl)-N-(4-methyl-1-azabicyclo[3.2.2]nonan-4-yl)piperazine-1-carboxamide] | 3160 nM | ≥ 10000 nM |  |  |  |  |  |  |
| 1.25 nM |  |  | 0.0655 nM | 6.54 nM | CC1(NC(=O)C2CCN(c3nccc(-c4ccc(F)cc4)n3)CC2)CCN2CCC1CC2 (single isomer, unassigned) [Example 43, 1-(4-(4-Fluorophenyl)pyrimidin-2-yl)-N-(4-methyl-1-azabicyclo[3.2.2]nonan-4-yl)piperidine-4-carboxamide] |  |  |  |  |  |  | 8920 nM | 7140 nM |
| 46.1 nM | 6.39 nM | 108 nM |  |  | COCCCOc1cnc(-c2ccc(C(C)(C)NC(=O)OC3CCN4CCC3CC4)cc2)cn1 (stereo not shown) [Example 321, 1-Azabicyclo[3.2.2]nonan-4-yl (2-(4-(5-(3-methoxypropoxy)pyrazin-2-yl)phenyl)propan-2-yl)carbamate] | 1000 nM | ≥ 10000 nM |  |  |  |  |  |  |
| 5.56 nM | 3.34 nM | 79.3 nM |  |  | COCCOc1cccc(-c2ccc(C(C)(C)NC(=O)OC3CCN4CCC3CC4)cc2)c1 (stereo not shown) [Example 168, 1-Azabicyclo[3.2.2]nonan-4-yl (2-(3′-(2-methoxyethoxy)-[1,1′-biphenyl]-4-yl)propan-2-yl)carbamate] | 1000 nM | ≥ 10000 nM |  |  |  |  |  |  |
| 7.63 nM | 1.24 nM | 38.9 nM |  |  | CC(C)(NC(=O)NC1(C)CCN2CCC1CC2)c1ccc(Oc2ccc(C(=O)N3CC(F)(F)C3)cc2)cc1 (stereo not shown) [Example 303, 1-(2-(4-(4-(3,3-Difluoroazetidine-1-carbonyl)phenoxy)phenyl)propan-2-yl)-3-(4-methyl-1-aza-bicyclo[3.2.2]nonan-4-yl)urea] | 316 nM | ≥ 10000 nM |  |  |  |  |  |  |
| 2.83 nM | 0.383 nM | 48.9 nM |  |  | COCc1ccc(-c2ccnc(N3CCC(F)(C(=O)NC4(C)CCN5CCC4CC5)CC3)n2)cc1 (stereo not shown) [Example 75, 4-Fluoro-1-(4-(4-(methoxymethyl)phenyl)pyrimidin-2-yl)-N-(4-methyl-1-azabicyclo[3.2.2]nonan-4-yl)piperidine-4-carboxamide] | 316 nM | 5270 nM |  |  |  |  |  |  |
| 10.9 nM | 1.5 nM | 279 nM |  |  | COCc1ccc(-c2ccnc(N3CCN(C(=O)NC4(C)CCN5CCC4CC5)CC3C(F)(F)F)n2)cc1 (stereo not shown) [Example 149, 4-(4-(4-(Methoxymethyl)phenyl)pyrimidin-2-yl)-N-(4-methyl-1-azabicyclo[3.2.2]nonan-4-yl)-3-(trifluoromethyl)piperazine-1-carboxamide] | 1000 nM | 4310 nM |  |  |  |  |  |  |

| SMILES | IC50 [1] | IC50 [2, 4] | IC50 [3, 7] | IC50 ([2]; C32 human melanoma cells, read-out: GM3 C32 IC50) | IC50 ([3]; B16 mouse melanoma cells, read-out: GM3 B16 IC50) | IC50 (C32 human melanoma cells; [5]) | IC50 (B16 mouse melanoma cells; [6]) | IC50 [2, 8] | IC50 (C32 human melanoma cells; [9]) | IC50 (B16 mouse melanoma cells; [10]) | IC50 [3, 11] | IC50 (C32 human melanoma cells; C32 cells; concentration causing 50% cell death; values greater than 10 represent a lack of cell death; read-out: Viability, C32 IC50) | IC50 (B16 mouse melanoma cells; B16 cells; concentration causing 50% cell death; values greater than 10 represent a lack of cell death; read-out: Viability, B16 IC50) |
| --- | --- | --- | --- | --- | --- | --- | --- | --- | --- | --- | --- | --- | --- |
| CC(C)(NC(=O)OC1CN2CCC1CC2)c1ccc(-c2ccc(CO)cc2)cc1 (stereo not shown) [Example 223, Quinuclidin-3-yl (2-(4′-(hydroxymethyl)-[1,1′-biphenyl]-4-yl)propan-2-yl)carbamate] | 454 nM |  |  |  |  |  |  | 21.6 nM | ≥ 10000 nM | ≥ 10000 nM | 881 nM |  |  |
| CCC1(NC(=O)NC(C)(C)c2ccc(-c3ccc(S(=O)(=O)CCC(C)(C)C)cc3)cc2)CN2CCC1CC2 (stereo not shown) [Example 247, 1-(2-(4′-((3,3-Dimethylbutyl)sulfonyl)-[1,1′-biphenyl]-4-yl)propan-2-yl)-3-(3-ethylquinuclidin-3-yl)urea] | 1.66 nM | 0.396 nM | 4.28 nM |  |  | 1000 nM | 6640 nM |  |  |  |  |  |  |
| O=C(NC1CN2CCC1CC2)C1(F)CCN(c2nccc(-c3ccc(OCCF)cc3)n2)CC1 (stereo not shown) [Example 87, 4-Fluoro-1-(4-(4-(2-fluoroethoxy)phenyl)pyrimidin-2-yl)-N-(quinuclidin-3-yl)piperidine-4-carboxamide] | 1.91 nM | 0.177 nM | 64.3 nM |  |  | 215 nM | 8910 nM |  |  |  |  |  |  |
| COCCOCc1ccc(-c2ccc(C(C)(C)NC(=O)NC3(C)CN4CCC3CC4)cc2)cc1 (stereo not shown) [Example 198, 1-(2-(4′-((2-Methoxyethoxy)methyl)-[1,1′-biphenyl]-4-yl)propan-2-yl)-3-(3-methylquinuclidin-3-yl)urea] | 25.2 nM | 3.24 nM | 118 nM |  |  | ≥ 10000 nM | ≥ 10000 nM |  |  |  |  |  |  |
| O=C(OC1CN2CCC1CC2)N1CCN(c2ccc(-c3ccccc3)cc2)CC1 (stereo not shown) [Example 6, Quinuclidin-3-yl 4-([1,1′-biphenyl]-4-yl)piperazine-1-carboxylate] | 5600 nM |  |  |  |  |  |  | 1000 nM | 4120 nM | 5210 nM | 3520 nM |  |  |
| CCCC1(NC(=O)NC(C)(C)c2ccc(-c3ccc(S(=O)(=O)CC4(COC)CC4)cc3)cc2)CN2CCC1CC2 (stereo not shown) [Example 251, 1-(2-(4′-(((1-(Methoxymethyl)cyclopropyl)methyl)sulfonyl)-[1,1′-biphenyl]-4-yl)propan-2-yl)-3-(3-propylquinuclidin-3-yl)urea] | 21 nM | 5.01 nM | 47.5 nM |  |  | 1000 nM | ≥ 10000 nM |  |  |  |  |  |  |
| CC(C)(NC(=O)NC1(C)CN2CCC1CC2)c1cccc(Oc2cccc(C(=O)N3CCOCC3)c2)c1 (stereo not shown) [Example 277, 1-(3-Methylquinuclidin-3-yl)-3-(2-(3-(3-(morpholine-4-carbonyl)phenoxy)phenyl)propan-2-yl)urea] | 91.7 nM | 80.1 nM | 2030 nM |  |  | ≥ 10000 nM | ≥ 10000 nM |  |  |  |  |  |  |
